Results published in patent US20030186423A1, “Amidase from variovorax” (Degussa AG, priority 2001, published 2003).

What was measured:
Type in all cases: biochemical, Variovorax paradoxus
D-amidase [1] = test: Specific activity of crude extracts and purified D-amidase for DL-Tle-NH2; settings: DL-Tle-NH2 as the substrate
Method: (§1) In the conversion of tert-leucinamide (gen. acid amides) by the D-amidase, the formation of ammonia or ammonium ions and tert-leucine (gen. acid) in equimolar amounts occurs. […] The change in concentration of the components participating can be measured in an enzyme test, which comprises incubation of the following test batch for 10-60 minutes at 30° C.
(§2) The enzyme test was started by addition of the substrate and the reaction was stopped by heating at 95° C. for three minutes. The analysis of the reaction products was carried out for ammonium ions by enzymatic determination of ammonium by glutamate dehydrogenase (Bergmeyer, H.,U., and Beutler, H.-O. (1985) Ammonia. In: Methods of Enzymatic Analysis. VCH-Verlag, 3rd edition, vol. 8: 454-461, Weinheim) and for D- and L-tert-leucine by means of HPLC (Bruckner, H., Wittner R., and Godel H., (1991) Fully automated high-performance liquid chromatographic separation of DL-amino acids derivatized with o-phthaldialdehyde together with N-isopropyl-cysteine. Application to food samples. Anal. Biochem. 144(1): 204-206). Batches to which no substrate were added served as controls.

D-amidase [2] = test: Enzyme test for amino acid amides and α-hydroxycarboxylic acid amides (HPLC or NH4+ determination); settings: substrate 40 mM
Method: For prolinamide, and the α-hydroxycarboxylic acid amides lactic acid amide (Lac-NH2) and 2-hydroxy-4-methylmercaptobutyric acid amid (MHA-NH2), the methionine-analogous α-hydroxycarboxylic acid amide, determination of the product with the previous HPLC analysis is not possible. For these substrates, the activity was determined with the aid of NH4^+ determination. […] All the substrates were employed in the enzyme test at 40 mM. In the 4th column, for further comparison the activity for the lower enantiomer has been set at 1 and a relative activity for the preferred enantiomer has been calculated therefrom.
as §1, §2
(§3) The separation and quantitative determination of the enantiomers D- and L-tert-leucine were carried out by a “chiral derivatization” on the basis of o-phthaldialdehyde (OPA)/N-isobutyryl-L-cysteine or N-isobutyryl-D-cysteine (Brückner, H.; Wittner R. and Godel H. (1991), Fully automated high-performance liquid chromatographic separation of DL-amino acids derivatized with o-Phthaldialdehyde together with N-isopropyl-cysteine. Application to food samples. Anal. Biochem. 144, 204-206). The diastereomeric isoindole derivatives formed were separated on an RP-18 (reversed phase) column and detected by fluorescence. A two-buffer system of aqueous acetate buffer and an acetonitrile/water mixture was used as the mobile phase.

D-amidase [3] = test: Kinetic cleavage of racemic amino acid amides: enantioselectivity as a function of the conversion
Method: To evaluate the suitability for kinetic cleavage of racemic DL-Tle-NH2, the enantioselectivity was determined as a function of the conversion.
DL-Valin-, DL-leucin- and DL-phenylalaninamide were alos tested in this respect. For this, the enantioselectivity was determined as function of the conversion with partly purified enzyme from Variovorax paradoxus 19-3 after the 1st chromatography step.
as §3

D-amidase [4] = test: Enzyme test for N-formylated amino acid amides, NH4+ determination with glutamate dehydrogenase
Method: The cleavage of racemic N-formylated amino acid amides was investigated by using the D-amidase according to the invention. The enzyme used was a partly purified D-amidase after the 1st chromatography step. The activity was measured by determining the NH4^+ ions with glutamate dehydrogenase (Bergmeyer, H. U., and Beutler, H.-O. (1985), Ammonia. In: Methods of Enzymatic Analysis. VCH-Verlag, 3rd edition, vol. 8: 454-461, Weinheim). The following substrates were employed in the enzyme test at 10 mM. The enzyme glutamate dehydrogenase (GluDH; E.C.1.4.1.3) converts 2-oxoglutarate into L-glutamate, ammonium ions being consumed and NADH being oxidized to NAD+(Bergmeyer, H.,U. and Beutler, H.-O. (1985), Ammonia. In: Methods of Enzymatic Analysis. VCH-Verlag, 3rd edition, vol. 8: 454-461, Weinheim). The amount of NADH consumed during the reaction is equivalent to the amount of ammonium ions. The change in the concentration of NADH is the measurement parameter and can be determined spectrophotometrically at a wavelength of 340 nm.

D-amidase [5] = test: Enzyme test for acid amides, activity by determination of ammonium ions with glutamate dehydrogenase; settings: substrate 40 mM
Method: The activity was measured by determination of the ammonium ions with glutamate dehydrogenase (Bergmeyer, H. U., and Beutler, H.-O. (1985), Ammonia. In: Methods of Enzymatic Analysis. VCH-Verlag, 3rd edition, vol. 8: 454-461, Weinheim). […] The substrates were employed in the enzyme test at 40 mM, except for succinic acid diamide and adipic acid diamide, each at 10 mM, and benzylamide at 20 mM. Since the activities were determined only at in each case one substrate concentration, relative activities are stated.
as §1, §2
The enzyme glutamate dehydrogenase (GluDH; E.C.1.4.1.3) converts 2-oxoglutarate into L-glutamate, ammonium ions being consumed and NADH being oxidized to NAD+(Bergmeyer, H.,U. and Beutler, H.-O. (1985), Ammonia. In: Methods of Enzymatic Analysis. VCH-Verlag, 3rd edition, vol. 8: 454-461, Weinheim). The amount of NADH consumed during the reaction is equivalent to the amount of ammonium ions. The change in the concentration of NADH is the measurement parameter and can be determined spectrophotometrically at a wavelength of 340 nm.
The test components were pipetted into cells of plastic (1.5 ml semimicro disposable cells, Brand) and mixed and the extinction at 340 nm was determined after 5 min. 10 μl GluDH were then added, and after the reaction had gone to completion, as a rule after 30 min, the extinction was measured again.

CC(C)(C)C(N)C(N)=O (racemic) [DL-Tle-NH2, D,L-tert-Leucinamide]
Specific activity (D-amidase [1]; D-amidase after the first two purification steps): 0.68 U/mg | Specific activity (D-amidase [1]; crude extract of E. coli JM 101 expression clones): 80-210 mU/mg | Specific activity (D-amidase [1]; homogeneously purified D-amidase from Variovorax paradoxus): 1.4 U/mg | Activity with respect to Tle-NH2 (D-amidase [2]; DL-Tle-NH2 = 1): 1 | Specific activity (D-amidase [2]; partly purified D-amidase after the 2nd chromatography step (0.56 U/mg), Pro-, Lac-, MHA-NH2 by NH4+ determination): 0.56 U/mg | E value (D-amidase [3]; both series of experiments (partly purified and virtually homogeneous enzyme)): greater than 100 | enantioselectivity with respect to D-Tle (D-amidase [3]; partly purified enzyme after the 1st chromatography step, conversion of greater than 45%): 96.6% | Activity with respect to Tle-NH2 (D-amidase [4]; Table 4, DL-Tle-NH2 = 100): 100% | Relative act. (D-amidase [4]; Table 4, substrate 10 mM, partly purified D-amidase after the 1st chromatography step): 200 mU/mg | Activity with respect to Tle-NH2 (D-amidase [5]; DL-Tle-NH2 = 1): 1 | Relative act. (D-amidase [5]; partly purified D-amidase after the 2nd chromatography step (0.51 U/mg)): 0.51 U/mg

CC(C)[C@H](N)C(N)=O (racemic) [DL-Val-NH2, valinamide]
E value (D-amidase [3]; conversion 3%): 190 | ee D-Val (D-amidase [3]; conversion 3%, partly purified enzyme after the 1st chromatography step): 98.9% | E value (D-amidase [3]; conversion 15%): 180 | ee D-Val (D-amidase [3]; conversion 15%, partly purified enzyme after the 1st chromatography step): 98.7% | E value (D-amidase [3]; conversion 29%): 200 | ee D-Val (D-amidase [3]; conversion 29%, partly purified enzyme after the 1st chromatography step): 98.5% | E value (D-amidase [3]; conversion 42%): 220 | ee D-Val (D-amidase [3]; conversion 42%, partly purified enzyme after the 1st chromatography step): 98.1% | E value (D-amidase [3]; conversion 50%): 140 | ee D-Val (D-amidase [3]; conversion 50%, partly purified enzyme after the 1st chromatography step): 95.1% | E value (D-amidase [3]; conversion 57%): 56 | ee D-Val (D-amidase [3]; conversion 57%, partly purified enzyme after the 1st chromatography step): 75.0% | Activity with respect to Tle-NH2 (D-amidase [4]; Table 5, DL-Val-NH2 = 100): 100% | Relative act. (D-amidase [4]; Table 5, comparison of valinamide and N-formyl-valinamide): 870 mU/mg
